From patent US20040191926A1 (priority 2001, published 2004)

How the values were obtained:
TCPTP = target: T1, TCPTP (Homo sapiens, UniProt P17706); assay: PTPase activity assay with pNPP substrate; assay type: biochemical; settings: pH 7.0, ionic strength 0.15 M, read-out: Inhibition Potency, Ki
T1 construct: catalytic domain (amino acid residues 1-288) of the human T cell PTPase (TCPTP); made in house
T1 sequence (P17706 1-288): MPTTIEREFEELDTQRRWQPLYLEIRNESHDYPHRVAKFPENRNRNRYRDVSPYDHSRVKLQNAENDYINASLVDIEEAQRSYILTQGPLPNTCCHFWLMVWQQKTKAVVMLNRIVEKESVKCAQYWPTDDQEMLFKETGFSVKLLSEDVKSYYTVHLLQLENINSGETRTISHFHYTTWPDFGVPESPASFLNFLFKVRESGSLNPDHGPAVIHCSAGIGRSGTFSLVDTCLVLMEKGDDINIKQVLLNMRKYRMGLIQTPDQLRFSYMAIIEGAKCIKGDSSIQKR

Yersinia PTP = target: T2, Yersinia PTP (Yersinia enterocolitica, UniProt P15273); assay: biochemical
T2 construct: made in house; host or cells: E. coli

SHP2 = target: T3, SHP2 (Homo sapiens, UniProt Q06124); assay: Phosphatase panel, pNPP assay; assay type: biochemical; settings: 2 mM pNPP; read-out: Inhibition Potency, IC50
T3 construct: the catalytic domains of SHP1 and SHP2 were expressed and purified as (His)6-fusion proteins; (His)6; made in house
T3 sequence (Q06124 247-517 limits assumed): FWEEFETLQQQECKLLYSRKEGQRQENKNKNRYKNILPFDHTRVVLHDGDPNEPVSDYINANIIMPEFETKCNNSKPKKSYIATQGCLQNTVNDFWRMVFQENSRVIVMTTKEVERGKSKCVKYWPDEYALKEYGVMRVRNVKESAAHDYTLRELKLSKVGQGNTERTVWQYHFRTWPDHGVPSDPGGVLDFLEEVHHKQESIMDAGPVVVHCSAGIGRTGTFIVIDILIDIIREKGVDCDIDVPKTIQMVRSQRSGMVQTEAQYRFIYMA

LAR = target: T4, LAR (Homo sapiens, UniProt P10586); assay: Phosphatase panel, pNPP assay; assay type: biochemical; settings: 2 mM pNPP; read-out: Inhibition Potency, IC50
T4 construct: The intracellular fragment of PTPa, LAR and CD45 containing both of the PTPase domains was cleaved off the fusion protein; GST (cleaved yes); made in house
T4 sequence (P10586 1285-1907 limits assumed): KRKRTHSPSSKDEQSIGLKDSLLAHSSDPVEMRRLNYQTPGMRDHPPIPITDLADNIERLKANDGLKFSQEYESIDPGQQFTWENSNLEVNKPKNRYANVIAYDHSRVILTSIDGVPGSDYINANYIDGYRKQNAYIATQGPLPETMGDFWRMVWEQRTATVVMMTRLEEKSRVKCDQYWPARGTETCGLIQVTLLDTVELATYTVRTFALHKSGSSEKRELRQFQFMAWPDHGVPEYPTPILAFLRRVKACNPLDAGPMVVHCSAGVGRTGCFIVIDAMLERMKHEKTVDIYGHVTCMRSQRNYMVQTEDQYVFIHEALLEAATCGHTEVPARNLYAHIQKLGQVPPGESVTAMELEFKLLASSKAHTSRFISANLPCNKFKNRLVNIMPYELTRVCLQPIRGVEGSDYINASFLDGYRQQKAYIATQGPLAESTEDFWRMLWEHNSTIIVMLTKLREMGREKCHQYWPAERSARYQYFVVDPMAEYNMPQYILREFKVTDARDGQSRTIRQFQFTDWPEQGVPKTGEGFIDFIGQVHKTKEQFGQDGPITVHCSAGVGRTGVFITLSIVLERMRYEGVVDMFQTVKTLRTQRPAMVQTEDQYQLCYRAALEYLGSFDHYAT

HePTP = target: T5, HePTP (Homo sapiens, UniProt P35236); assay: Phosphatase panel, pNPP assay; assay type: biochemical; settings: at 10 μM
T5 construct: (His)6; made in house
T5 sequence (P35236 1-360): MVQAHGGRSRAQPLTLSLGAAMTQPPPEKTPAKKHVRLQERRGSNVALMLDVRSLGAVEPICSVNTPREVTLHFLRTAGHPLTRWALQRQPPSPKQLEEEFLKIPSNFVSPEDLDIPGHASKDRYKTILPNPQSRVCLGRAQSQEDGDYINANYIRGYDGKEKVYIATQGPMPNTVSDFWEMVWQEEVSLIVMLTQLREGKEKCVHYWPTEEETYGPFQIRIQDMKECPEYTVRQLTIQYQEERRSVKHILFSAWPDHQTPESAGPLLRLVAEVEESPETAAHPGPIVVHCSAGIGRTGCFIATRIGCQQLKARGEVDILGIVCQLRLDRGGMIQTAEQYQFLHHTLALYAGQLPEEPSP

PTPα = target: T6, PTPα (Homo sapiens, UniProt P18433); assay: Phosphatase panel, pNPP assay; assay type: biochemical; settings: at 10 μM
T6 construct: The intracellular fragment of PTPa, LAR and CD45 containing both of the PTPase domains was cleaved off the fusion protein; GST (cleaved yes); made in house

VHR = target: T7, VHR (Homo sapiens, UniProt P51452); assay: Phosphatase panel, pNPP assay; assay type: biochemical; settings: at 10 μM
T7 construct: made in house; host or cells: E. coli

MKP3 = assay: Phosphatase panel, pNPP assay; assay type: biochemical; settings: at 10 μM
Stp1 = target: T8, Stp1 (Schizosaccharomyces pombe, UniProt P41893); assay: Phosphatase panel, pNPP assay; assay type: biochemical; settings: at 10 μM
T8 construct: made in house; host or cells: E. coli
T8 sequence (P41893 1-156): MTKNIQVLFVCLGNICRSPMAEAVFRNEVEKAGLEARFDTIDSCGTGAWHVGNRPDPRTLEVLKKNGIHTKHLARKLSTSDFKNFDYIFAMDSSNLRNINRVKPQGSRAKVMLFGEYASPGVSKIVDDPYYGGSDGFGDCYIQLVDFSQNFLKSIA

PP2Cα = target: T9, PP2Cα (Homo sapiens, UniProt P35813); assay: Phosphatase panel, pNPP assay; assay type: biochemical; settings: at 10 μM
T9 sequence (P35813 1-382): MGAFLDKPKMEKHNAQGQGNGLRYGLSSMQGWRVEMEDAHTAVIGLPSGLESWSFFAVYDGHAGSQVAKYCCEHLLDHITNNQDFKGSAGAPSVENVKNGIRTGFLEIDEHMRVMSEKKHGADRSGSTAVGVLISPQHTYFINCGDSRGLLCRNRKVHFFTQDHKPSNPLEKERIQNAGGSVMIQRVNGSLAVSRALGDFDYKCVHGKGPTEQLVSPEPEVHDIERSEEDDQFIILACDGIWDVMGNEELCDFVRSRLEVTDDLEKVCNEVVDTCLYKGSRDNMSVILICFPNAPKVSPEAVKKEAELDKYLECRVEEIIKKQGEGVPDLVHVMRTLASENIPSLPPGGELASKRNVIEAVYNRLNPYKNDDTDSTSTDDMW

T7 sequence (P51452 whole entry, species assumed): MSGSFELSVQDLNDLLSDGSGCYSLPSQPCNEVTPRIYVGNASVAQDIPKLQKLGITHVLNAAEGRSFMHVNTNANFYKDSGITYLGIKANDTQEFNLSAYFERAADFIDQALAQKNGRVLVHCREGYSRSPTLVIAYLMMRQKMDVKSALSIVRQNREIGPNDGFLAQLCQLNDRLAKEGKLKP
T2 sequence (P15273 whole entry): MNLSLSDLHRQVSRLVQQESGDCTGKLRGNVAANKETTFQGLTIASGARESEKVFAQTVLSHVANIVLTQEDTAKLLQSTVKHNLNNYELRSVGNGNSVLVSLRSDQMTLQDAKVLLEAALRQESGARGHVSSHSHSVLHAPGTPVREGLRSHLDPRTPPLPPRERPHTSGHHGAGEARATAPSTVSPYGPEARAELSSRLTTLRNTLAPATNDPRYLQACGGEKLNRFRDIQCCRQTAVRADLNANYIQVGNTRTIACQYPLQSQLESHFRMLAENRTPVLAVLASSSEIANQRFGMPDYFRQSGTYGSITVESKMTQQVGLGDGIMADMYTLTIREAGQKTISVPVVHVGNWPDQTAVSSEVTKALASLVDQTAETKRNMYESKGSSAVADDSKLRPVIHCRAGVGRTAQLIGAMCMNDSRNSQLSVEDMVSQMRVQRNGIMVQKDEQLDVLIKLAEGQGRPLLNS

With NC(=O)C(Cc1ccc(C(F)(F)P(=O)(O)O)cc1)NC(=O)C(CC(=O)O)NC(=O)Cc1ccc(C(F)(F)P(=O)(O)O)cc1 (stereo not shown) [Compound 40] the Ki (TCPTP) was 0.026 µM, the IC50 (Yersinia PTP) was 1.6 µM and the IC50 (SHP2) was 10 µM. The IC50 (LAR) was 72 µM, the “Inhibition Potency” value (HePTP) was “No inhibition at 10 μM” and the “Inhibition Potency” value (PTPα) was “No inhibition at 10 μM”. The “Inhibition Potency” value (VHR) was “No inhibition at 10 μM”, the “Inhibition Potency” value (MKP3) was “No inhibition at 10 μM” and the “Inhibition Potency” value (Stp1) was “No inhibition at 10 μM”. For the same compound, the “Inhibition Potency” value (PP2Cα) was “No inhibition at 10 μM”.
